# Measurements reported in ChEMBL document CHEMBL3046734, “Molecular insights to explore abietane diterpenes as new LOX inhibitors” (Med Chem Res, 2013).
# pIC50: −log10 of the molar value.
# Tests used:
# [1] = Inhibition of Soybean LOX using linoleic acid as substrate incubated for 5 mins prior to substrate addition measured after 10 mins by spectrophotometric analysis; set-up: species or system Glycine max
# [2] = Inhibition of LOX (unknown origin); set-up: species or system Homo sapiens
Structure (SMILES),pIC50 [1],pIC50 [2]
O=c1cc(-c2ccccc2)oc2cc(O)c(O)c(O)c12 [BAICALEIN],4.66,–
NC(=O)n1c(O)c(C(=O)c2cccs2)c2cc(Cl)ccc21 [TANIDAP SODIUM],4.38,–
COc1c(C(C)C)cc2c(c1O)C=C1C=CC(=O)C(C)(C)C1CC2=O (stereo not given) [TAXAMAIRIN F],4.14,–
COc1c(C(C)C)cc2c(c1O)[C@@]1(C)CCC(=O)C(C)(C)[C@@H]1CC2=O [TAXUSABIETANE A],–,4.24
COc1c(C(C)C)cc2c(c1OC)[C@@]13CCC(=O)C(C)(C)[C@@H]1[C@H](OC3=O)C2=O [TAXUSABIETANE C],4.16,–
